Measurements from PubChem BioAssay AID2060899 (Molecular Pharmacology Branch, DTP, NCI, 2025).

Test system: 565726-208-R1-J5-PDC complex spheroids, growth inhibition
Assay: Anticancer human tumor 565726-208-R1-J5-PDC patient-derived pancreatic adenocarcinoma cell line growth inhibition [RAS]
Settings: for IC50: curve of first compound; for viability, T/C: stronger effect = lower value
Outline: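 Agents were tested in combination matrices in half-log decrements from a top concentration at or near clinical Cmax (10 microM if undetermined). Targets were multi-cell spheroids of tumour lines plus HUVEC and MSC stromal cells.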
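Also: spheroids exposed to compounds for seven days before readout.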
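For viability, T/C in this document: 100% = DMSO vehicle control viability.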

CC1(C)CCC(Nc2ncc(C(F)(F)F)c(-c3c[nH]c4c(P(C)(C)=O)c(C#N)ccc34)n2)CN1 (configuration not stated) + CCn1c(-c2cccnc2C(C)OC)c2c3cc(ccc31)N1CCOC(CC(NC(=O)C(C(C)C)N(C)C(=O)C3(F)CCN(C(=O)C#CC(C)(C)N(C)C)CC3)C(=O)N3CCCC(N3)C(=O)OCC(C)(C)C2)C1
IC50 (second compound 0.000949 µM): 3.9 nM | IC50 (second compound 0.003 µM): 4.09 nM | IC50 (second compound 0.00949 µM): 3.98 nM | IC50 (second compound 0.03 µM): 3.25 nM | IC50 (second compound 0.0949 µM): 2.54 nM | IC50 (second compound 0.3 µM): 1.09 nM | viability, T/C (second compound 0.000949 µM, first compound 0.000949 µM): 86% | viability, T/C (second compound 0.000949 µM, first compound 0.003 µM): 54% | viability, T/C (second compound 0.000949 µM, first compound 0.00949 µM): 37.6% | viability, T/C (second compound 0.000949 µM, first compound 0.03 µM): 32.1% | viability, T/C (second compound 0.000949 µM, first compound 0.0949 µM): 32.2% | viability, T/C (second compound 0.000949 µM, first compound 0.3 µM): 29.5% | viability, T/C (second compound 0.003 µM, first compound 0.000949 µM): 89% | viability, T/C (second compound 0.003 µM, first compound 0.003 µM): 55% | viability, T/C (second compound 0.003 µM, first compound 0.00949 µM): 36.5% | viability, T/C (second compound 0.003 µM, first compound 0.03 µM): 29.2% | viability, T/C (second compound 0.003 µM, first compound 0.0949 µM): 29.5% | viability, T/C (second compound 0.003 µM, first compound 0.3 µM): 28.7% | viability, T/C (second compound 0.00949 µM, first compound 0.000949 µM): 83.2% | viability, T/C (second compound 0.00949 µM, first compound 0.003 µM): 55.4% | viability, T/C (second compound 0.00949 µM, first compound 0.00949 µM): 33.5% | viability, T/C (second compound 0.00949 µM, first compound 0.03 µM): 27.9% | viability, T/C (second compound 0.00949 µM, first compound 0.0949 µM): 26.9% | viability, T/C (second compound 0.00949 µM, first compound 0.3 µM): 27.6% | viability, T/C (second compound 0.03 µM, first compound 0.000949 µM): 76% | viability, T/C (second compound 0.03 µM, first compound 0.003 µM): 50.9% | viability, T/C (second compound 0.03 µM, first compound 0.00949 µM): 36.4% | viability, T/C (second compound 0.03 µM, first compound 0.03 µM): 29% | viability, T/C (second compound 0.03 µM, first compound 0.0949 µM): 28.6% | viability, T/C (second compound 0.03 µM, first compound 0.3 µM): 29.3% | viability, T/C (second compound 0.0949 µM, first compound 0.000949 µM): 69.3% | viability, T/C (second compound 0.0949 µM, first compound 0.003 µM): 46.7% | viability, T/C (second compound 0.0949 µM, first compound 0.00949 µM): 30% | viability, T/C (second compound 0.0949 µM, first compound 0.03 µM): 26.9% | viability, T/C (second compound 0.0949 µM, first compound 0.0949 µM): 29% | viability, T/C (second compound 0.0949 µM, first compound 0.3 µM): 32.9% | viability, T/C (second compound 0.3 µM, first compound 0.000949 µM): 52% | viability, T/C (second compound 0.3 µM, first compound 0.003 µM): 35.6% | viability, T/C (second compound 0.3 µM, first compound 0.00949 µM): 27.4% | viability, T/C (second compound 0.3 µM, first compound 0.03 µM): 26.7% | viability, T/C (second compound 0.3 µM, first compound 0.0949 µM): 27.8% | viability, T/C (second compound 0.3 µM, first compound 0.3 µM): 26.5%

NC1c2ccccc2OC12CCN(c1cnc3c(N4CCCc5ncccc54)n[nH]c3n1)CC2 (configuration not stated) + CCn1c(-c2cc(N3CCN(C)CC3)cnc2C(C)OC)c2c3cc(ccc31)-c1csc(n1)CC(NC(=O)C1CC1C)C(=O)N1CCCC(N1)C(=O)OCC(C)(C)C2
IC50 (second compound 0.000949 µM): 45 nM | IC50 (second compound 0.003 µM): < 31.6 nM | IC50 (second compound 0.00949 µM): < 31.6 nM | IC50 (second compound 0.03 µM): < 31.6 nM | IC50 (second compound 0.0949 µM): < 31.6 nM | IC50 (second compound 0.3 µM): < 31.6 nM | viability, T/C (second compound 0.000949 µM, first compound 0.0316 µM): 53.3% | viability, T/C (second compound 0.000949 µM, first compound 0.1 µM): 42.6% | viability, T/C (second compound 0.000949 µM, first compound 0.316 µM): 24.9% | viability, T/C (second compound 0.000949 µM, first compound 1 µM): 23.5% | viability, T/C (second compound 0.000949 µM, first compound 3.16 µM): 17.5% | viability, T/C (second compound 0.000949 µM, first compound 10 µM): 21.3% | viability, T/C (second compound 0.003 µM, first compound 0.0316 µM): 36.7% | viability, T/C (second compound 0.003 µM, first compound 0.1 µM): 27.4% | viability, T/C (second compound 0.003 µM, first compound 0.316 µM): 19.8% | viability, T/C (second compound 0.003 µM, first compound 1 µM): 14.2% | viability, T/C (second compound 0.003 µM, first compound 3.16 µM): 16.9% | viability, T/C (second compound 0.003 µM, first compound 10 µM): 16.4% | viability, T/C (second compound 0.00949 µM, first compound 0.0316 µM): 28.7% | viability, T/C (second compound 0.00949 µM, first compound 0.1 µM): 21% | viability, T/C (second compound 0.00949 µM, first compound 0.316 µM): 16.8% | viability, T/C (second compound 0.00949 µM, first compound 1 µM): 13.7% | viability, T/C (second compound 0.00949 µM, first compound 3.16 µM): 14.5% | viability, T/C (second compound 0.00949 µM, first compound 10 µM): 14% | viability, T/C (second compound 0.03 µM, first compound 0.0316 µM): 21.4% | viability, T/C (second compound 0.03 µM, first compound 0.1 µM): 18% | viability, T/C (second compound 0.03 µM, first compound 0.316 µM): 13.5% | viability, T/C (second compound 0.03 µM, first compound 1 µM): 13% | viability, T/C (second compound 0.03 µM, first compound 3.16 µM): 12.9% | viability, T/C (second compound 0.03 µM, first compound 10 µM): 14.5% | viability, T/C (second compound 0.0949 µM, first compound 0.0316 µM): 19.4% | viability, T/C (second compound 0.0949 µM, first compound 0.1 µM): 17% | viability, T/C (second compound 0.0949 µM, first compound 0.316 µM): 15.5% | viability, T/C (second compound 0.0949 µM, first compound 1 µM): 13.7% | viability, T/C (second compound 0.0949 µM, first compound 3.16 µM): 11.8% | viability, T/C (second compound 0.0949 µM, first compound 10 µM): 13.9% | viability, T/C (second compound 0.3 µM, first compound 0.0316 µM): 17.5% | viability, T/C (second compound 0.3 µM, first compound 0.1 µM): 13.5% | viability, T/C (second compound 0.3 µM, first compound 0.316 µM): 13.6% | viability, T/C (second compound 0.3 µM, first compound 1 µM): 13.1% | viability, T/C (second compound 0.3 µM, first compound 3.16 µM): 12% | viability, T/C (second compound 0.3 µM, first compound 10 µM): 13.8%

CC(C)n1nc(-c2ccc3oc(N)nc3c2)c2c(N)ncnc21
viability, T/C (compound 0.00316 µM): 84% [middle of 4 runs] | viability, T/C (compound 0.01 µM): 66% [middle of 4 runs] | viability, T/C (compound 0.0316 µM): 54.3% [middle of 4 runs]
